Measured values taken from patent US10844074B2, “Heterocycle compounds and uses thereof” (ZHEJIANG JIANFENG-YIEN BIOTECHNOLOGY CO., LTD., priority 2015, dated 2020).

target: BTK (Homo sapiens, UniProt Q06187); test: BTK Enzyme Assay; format: biochemical; conditions: 1 uM compound; read-out: BTK (% inh @ 1 uM)
Procedure: The following TABLE II lists compounds representative of the invention and their activity in BTK assays. In these assays, the following grading was used: A: >30% inhibition @1 μM; B: <30% inhibition @1 μM.

Chain of BTK (Q06187 whole entry): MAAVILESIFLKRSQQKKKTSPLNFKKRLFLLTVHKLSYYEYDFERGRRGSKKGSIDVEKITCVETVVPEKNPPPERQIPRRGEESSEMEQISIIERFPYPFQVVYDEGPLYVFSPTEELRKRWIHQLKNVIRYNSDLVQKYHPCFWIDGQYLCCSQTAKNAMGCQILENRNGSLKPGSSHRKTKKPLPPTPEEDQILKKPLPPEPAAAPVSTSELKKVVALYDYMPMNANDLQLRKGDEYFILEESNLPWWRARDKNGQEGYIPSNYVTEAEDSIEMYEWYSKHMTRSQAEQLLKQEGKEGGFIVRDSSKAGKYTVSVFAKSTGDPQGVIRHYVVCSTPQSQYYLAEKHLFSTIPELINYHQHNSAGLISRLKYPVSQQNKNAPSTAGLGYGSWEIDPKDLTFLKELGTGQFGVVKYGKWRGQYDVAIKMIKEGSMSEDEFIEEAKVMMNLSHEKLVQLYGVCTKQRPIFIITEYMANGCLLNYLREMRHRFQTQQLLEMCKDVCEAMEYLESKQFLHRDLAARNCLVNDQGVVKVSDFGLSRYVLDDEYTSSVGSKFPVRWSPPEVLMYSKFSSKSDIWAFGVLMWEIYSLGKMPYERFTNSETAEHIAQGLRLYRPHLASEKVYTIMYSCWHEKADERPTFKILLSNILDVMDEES

SMILES | inhibition at 1 µM
C=CC(=O)Nc1cc(Nc2nc(-c3c[nH]c4ccccc34)c3sccc3n2)c(OC)cc1N1CCC(NC)CC1 [Compound 3, N-[5-[[4-(1H-indol-3-yl)thieno[3,2-d]pyrimidin-2-yl]amino]-4-methoxy-2-[4-(methylamino)-1-piperidyl]phenyl]prop-2-enamide] | > 30%
C=CC(=O)Nc1cc(NC2=NC(c3cccc(N(C)C)c3)C3SC=CC3=N2)c(OC)cc1N(C)C (stereo not drawn) [Compound 4, N-[2-(dimethylamino)-5-[[4-[3-(dimethylamino)phenyl]-4,4a-dihydrothieno[3,2-d]pyrimidin-2-yl]amino]-4-methoxy-phenyl]prop-2-enamide] | > 30%
C=CC(=O)Nc1cc(NC2=NC(c3cccc(NC)c3)C3SC=CC3=N2)c(OC)cc1N1CCN(C)CC1 (stereo not drawn) [Compound 7, N-[4-methoxy-5-[[4-[3-(methylamino)phenyl]-4,4a-dihydrothieno[3,2-d]pyrimidin-2-yl]amino]-2-(4-methylpiperazin-1-yl)phenyl]prop-2-enamide] | > 30%
C=CC(=O)Nc1cc(NC2=NC(c3cccc(N(C)C)c3)C3SC=CC3=N2)c(OC)cc1N(C)CCN1CCOCC1 (stereo not drawn) [Compound 8, N-[5-[[4-[3-(dimethylamino)phenyl]-4,4a-dihydrothieno[3,2-d]pyrimidin-2-yl]amino]-4-methoxy-2-[methyl(2-morpholinoethyl)amino]phenyl]prop-2-enamide] | > 30%
C=CC(=O)Nc1cc(NC2=NC(c3cccc(NC(C)(C)C)c3)C3SC=CC3=N2)c(OC)cc1N1CCOCC1 (stereo not drawn) [Compound 11, N-[5-[[4-[3-(tert-butylamino)phenyl]-4,4a-dihydrothieno[3,2-d]pyrimidin-2-yl]amino]-4-methoxy-2-morpholino-phenyl]prop-2-enamide] | > 30%
C=CC(=O)Nc1cc(NC2=NC(c3cccc(N(C)C)c3)C3SC=CC3=N2)c(OC)cc1OCCN(C)C (stereo not drawn) [Compound 12, N-[2-[2-(dimethylamino)ethoxy]-5-[[4-[3-(dimethylamino)phenyl]-4,4a-dihydrothieno[3,2-d]pyrimidin-2-yl]amino]-4-methoxy-phenyl]prop-2-enamide] | > 30%
C=CC(=O)Nc1cc(NC2=NC(c3cccc(NC)c3)C3SC=CC3=N2)c(OC)cc1OCCN(C)C (stereo not drawn) [Compound 13, N-[2-[2-(dimethylamino)ethoxy]-4-methoxy-5-[[4-[3-(methylamino)phenyl]-4,4a-dihydrothieno[3,2-d]pyrimidin-2-yl]amino]phenyl]prop-2-enamide] | > 30%
C=CC(=O)Nc1cc(NC2=NC(c3cccc(NC)c3)C3SC=CC3=N2)c(OC)cc1OCCN1CCCCC1 (stereo not drawn) [Compound 15, N-[4-methoxy-5-[[4-[3-(methylamino)phenyl]-4,4a-dihydrothieno[3,2-d]pyrimidin-2-yl]amino]-2-[2-(1-piperidyl)ethoxy]phenyl]prop-2-enamide] | > 30%
C=CC(=O)Nc1cc(NC2=NC(c3cccc(N(C)C)c3)C3SC=CC3=N2)c(OC)cc1N1CCC(C(=O)N(C)C)CC1 (stereo not drawn) [Compound 16, 1-[4-[[4-[3-(dimethylamino)phenyl]-4,4a-dihydrothieno[3,2-d]pyrimidin-2-yl]amino]-5-methoxy-2-(prop-2-enoylamino)phenyl]-N,N-dimethyl-piperidine-4-carboxamide] | > 30%
C=CC(=O)Nc1cc(NC2=NC(c3cccc(NC)c3)C3SC=CC3=N2)c(OC)cc1N1CCC(C(=O)N(C)C)CC1 (stereo not drawn) [Compound 17, 1-[5-methoxy-4-[[4-[3-(methylamino)phenyl]-4,4a-dihydrothieno[3,2-d]pyrimidin-2-yl]amino]-2-(prop-2-enoylamino)phenyl]-N,N-dimethyl-piperidine-4-carboxamide] | < 30%
C=CC(=O)Nc1cc(NC2=NC(c3cccc(N)c3)C3SC=CC3=N2)c(OC)cc1N1CCN(C)CC1 (stereo not drawn) [Compound 19, N-[5-[[4-(3-aminophenyl)-4,4a-dihydrothieno[3,2-d]pyrimidin-2-yl]amino]-4-methoxy-2-(4-methylpiperazin-1-yl)phenyl]prop-2-enamide] | < 30%
C=CC(=O)Nc1cc(NC2=NC(c3cccc(OC)c3)C3SC=CC3=N2)c(OC)cc1N1CCC(N(C)C)CC1 (stereo not drawn) [Compound 20, N-[2-[4-(dimethylamino)-1-piperidyl]-4-methoxy-5-[[4-(3-methoxyphenyl)-4,4a-dihydrothieno[3,2-d]pyrimidin-2-yl]amino]phenyl]prop-2-enamide] | < 30%
C=CC(=O)Nc1cc(Nc2nc(-c3c[nH]c4ccccc34)c3sccc3n2)c(OC)cc1N1CCN(C)CC1 [Compound 21, N-[5-[[4-(1H-indol-3-yl)thieno[3,2-d]pyrimidin-2-yl]amino]-4-methoxy-2-(4-methylpiperazin-1-yl)phenyl]prop-2-enamide] | > 30%
C=CC(=O)Nc1cc(Nc2nc(-c3cn(C)c4ccccc34)c3sccc3n2)c(OC)cc1N1CCN(C)CC1 [Compound 22, N-[4-methoxy-5-[[4-(1-methylindol-3-yl)thieno[3,2-d]pyrimidin-2-yl]amino]-2-(4-methylpiperazin-1-yl)phenyl]prop-2-enamide] | > 30%
C=CC(=O)Nc1cc(Nc2nc(-c3c[nH]c4ccccc34)c3sccc3n2)c(OC)cc1N1CCOCC1 [Compound 23, N-[5-[[4-(1H-indol-3-yl)thieno[3,2-d]pyrimidin-2-yl]amino]-4-methoxy-2-morpholino-phenyl]prop-2-enamide] | > 30%
C=CC(=O)Nc1cc(Nc2nc(-c3ccc(NC)cc3)c3sccc3n2)c(OC)cc1N1CCN(C)CC1 [Compound 25, N-[4-methoxy-5-[[4-[4-(methylamino)phenyl]thieno[3,2-d]pyrimidin-2-yl]amino]-2-(4-methylpiperazin-1-yl)phenyl]prop-2-enamide] | < 30%
C=CC(=O)Nc1cc(Nc2nc(-c3ccc(NC(C)(C)C)cc3)c3sccc3n2)c(OC)cc1N1CCN(C)CC1 [Compound 27, N-[5-[[4-[4-(tert-butylamino)phenyl]thieno[3,2-d]pyrimidin-2-yl]amino]-4-methoxy-2-(4-methylpiperazin-1-yl)phenyl]prop-2-enamide] | > 30%
C=CC(=O)Nc1cc(NC2=NC(c3cccc(OC)c3)C3C(=N2)C=CN3C)c(OC)cc1N1CCC(N(C)C)CC1 (stereo not drawn) [Compound 28, N-[2-[4-(dimethylamino)-1-piperidyl]-4-methoxy-5-[[4-(3-methoxyphenyl)-5-methyl-4,4a-dihydropyrrolo[3,2-d]pyrimidin-2-yl]amino]phenyl]prop-2-enamide] | < 30%
C=CC(=O)Nc1cc(Nc2nc(-c3ccccc3NC)c3sccc3n2)c(OC)cc1N1CCN(C)CC1 [Compound 29, N-[4-methoxy-5-[[4-[2-(methylamino)phenyl]thieno[3,2-d]pyrimidin-2-yl]amino]-2-(4-methylpiperazin-1-yl)phenyl]prop-2-enamide] | < 30%
C=CC(=O)Nc1cc(Nc2nc(-c3ccccc3NC)c3sccc3n2)c(OC)cc1N(C)CCN(C)C [Compound 31, N-[2-[2-(dimethylamino)ethyl-methyl-amino]-4-methoxy-5-[[4-[2-(methylamino)phenyl]thieno[3,2-d]pyrimidin-2-yl]amino]phenyl]prop-2-enamide] | < 30%
C=CC(=O)Nc1cc(Nc2nc(-c3ccccc3)c3ccsc3n2)c(OC)cc1N(C)CCN(C)C [Compound 32, N-[2-[2-(dimethylamino)ethyl-methyl-amino]-4-methoxy-5-[(4-phenylthieno[2,3-d]pyrimidin-2-yl)amino]phenyl]prop-2-enamide] | > 30%
